Measured values reported in US20220160652A1, “USE OF VITAMIN K IN COMBINATION WITH ANTICOAGULANTS” (KAYDENCE PHARMA AS, priority 2019, published 2022).

Key:
VSMCs [1] = assay: ATP increase, 24 h incubation (luminescence); type: cell-based; settings: 10 μM, p=0.014 for MK-7
Protocol: This study was performed to determine if vitamin K2 (MK-7) affects ATP generation. ATP is generated via glycolysis in the cytoplasm and via both the Krebs-cycle and oxidative phosphorylation in the mitochondria. ATP generation via glycolysis delivers only 2 ATP, whereas ATP generation in the mitochondria generates some 32 ATP.
(§1) To perform this study, VSCMs (5000 cells/well) were plated in 96-well plates and left to adhere overnight. Next, cells were incubated for 24 hours with either vehicle, vitamin K2 (MK-7) (10 μM), or UQ10 (10 μM). Hoechst was added to correct for cell number (1 μg/mL). Next, ATP was measured using mammalian lysis buffer for 5 minutes after which 50 μL ATP substrate solution was added to the wells and incubated for 10 minutes in a dark environment. Finally, the medium was transferred to a white plate to measure luminescence

Sprague-Dawley rats = assay: Thrombin Time (TT) in treated Sprague-Dawley rats; type: in vivo, rat; settings: added to dabigatran and to rivaroxaban
Protocol: To perform the study, 45 wild-type male Sprague-Dawley and 45 transgenic male Ren-2 rats [TGR(mREN-2)27] at the age of 10-11 weeks at the beginning of the treatment period were purchased from animal facility IKEM-CEM Institute of Clinical and Experimental Medicine (Prague, Czech Republic). All animals in the experiment were housed in individually ventilated cages (2-3 rats per cage) and kept in the animal rooms of JCET at a relative humidity of 55±10%, a temperature of 22±2 ° C., and a light cycle of 7 AM to 7 PM. The rats had free access to food and water. After delivery, animals were randomly divided into 10 experimental groups (5 or 10 rats per group), as indicated below in Table 1.
Four days before the start of the treatment, the first part of animals' body weight and food intake was measured in selected representative three cages (rats n=9) to calculate the appropriate amount of tested compounds required for addition to the diet to obtain the dosing indicated in Table 1. It was estimated that food intake was approximately 30 g of chow per rat per day. […] The body mass of the rats was measured at the beginning and at the end of treatment.
Prothrombin Time (PT), activated Partial Thromboplastin Time (aPTT), Thrombin Time (TT) and fibrinogen levels (Clauss method) were determined according to the manufacturer's instructions using Coag-Chrom 3003 apparatus (Bio-ksel, Grudziadz, Poland). […]

VSMCs [2] = assay: Hypoxia (CoCl2) induced oxidative stress in VSMCs (DCFDA); type: cell-based; settings: 10 μM, after 50 μM CoCl2 for 19 hours
Protocol: This study was performed to determine whether intracellular oxidative stress in VSCMs is derived from mitochondrial dysfunction. To perform this study, VSMCs were incubated with cobalt chloride, a known stabilizer of HIF1a. Cobalt chloride binding to HIF1a prevents the degradation of HIF1a and thus results in a cellular hypoxia state. HIF1a has been implicated in cancer biology as well as a number of other pathophysiologies, specifically in areas of vascularization and angiogenesis, energy metabolism, cell survival, and tumor invasion. Under normal circumstances, after injury, HIF1a is degraded by the enzyme prolyl hydroxylase (PHD). The continued up-regulation of HIF1 a (mimicked by cobalt chloride) promotes tumor growth and metastasis through its role in initiating angiogenesis and regulating cellular metabolism to overcome hypoxia. Hypoxia promotes apoptosis in both normal and tumor cells. Additionally, hypoxia generates significant intracellular oxidative stress.
To perform the study, VSMCs (10,000 cells/well) were plated in a 96-well plate and left to adhere overnight. Next, the medium was changed to a medium supplemented with 50 μM CoCl2 for 19 hours. The next day, cells were washed and incubated for 1 hour with 20 μM DCFDA in the presence of a vehicle (solvent for CoCl2 and vitamin K2 (MK-7)/UQ10), 10 μM vitamin K2 (MK-7), or 10 μM UQ10 in medium. The medium was then changed to a medium supplemented with vehicle, vitamin K2 (MK-7)/UQ10, or CoCl2, and fluorescent was measured for 6 hours. Fluorescence intensity was normalized for cell count.

VSMCs [3] = assay: Vitamin K2 (MK-7) and hypoxia: ATP on co-treatment with CoCl2; type: cell-based; settings: co-treatment CoCl2 100 μM and 10 μM, 24 hours
Protocol: This study was performed to investigate whether vitamin K2 (MK-7) can prevent the hypoxia-induced decrease in ATP (CoCl2 treatment, thereby stabilization of HIF1a). To perform this study, VSMCs were co-treated with CoCl2 and vitamin K2 (MK-7).
as §1, with “First,” for “To perform this study,”, “CoCl2 (100 μM) or CoCl2 and” for “vehicle,”, “(MK-7)” for “(MK-7) (10 μM),”, “together (100 and 10 μM, respectively). Next, ATP was measured and corrected for cell numbers. CoCl2 values were set as relative to CoCl2 co-treated with vitamin K2 (MK-7) or UQ10.” for “(10 μM).”, “Finally,” for “Finally, the”, “luminescence.” for “luminescence”

VSMCs [4] = assay: ATP increase, 48 h incubation with CoCl2 comparison (luminescence); type: cell-based; settings: 10 μM, vs CoCl2 100 μM
Protocol: as §1, with “This study was performed to further investigate the origin of ATP production that is influenced by vitamin K2 (MK-7). To” for “To”, “for 48” for “for 24”, “vehicle, CoCl2 (100 μM),” for “vehicle,”, “5 minutes,” for “5 minutes”, “Finally,” for “Finally, the”, “measure luminescence.” for “measure luminescence”

For CC(C)=CCC/C(C)=C/CC/C(C)=C/CC/C(C)=C/CC/C(C)=C/CC/C(C)=C/CC/C(C)=C/CC1=C(C)C(=O)c2ccccc2C1=O [vitamin K2 (MK-7)], the “ATP production in VSMCs compared to the vehicle” value (VSMCs [1]) was “increased ATP production in VSMCs significantly”, the “increase of thrombin time on addition of vitamin K2 (MK-7)” value (Sprague-Dawley rats) was 5-7% and the “hypoxia induced oxidative stress (counteraction)” value (VSMCs [2]) was “seems to counteract hypoxia induced oxidative stress”. The “prevention of hypoxia-induced (CoCl2) decrease in ATP generation” value (VSMCs [3]) was “could (partially) prevent the decreased ATP generation” and the “ATP levels compared to CoCl2” value (VSMCs [4]) was “significant higher ATP levels”.
